Results taken from patent publication US11963936B2, “Method of manufacturing stable emulsions and compositions containing the same” (UNIVERSITY OF FLORIDA RESEARCH FOUNDATION, INC., priority 2013, dated 2024).

Key:
[1] = cited from earlier work
[2] = Oil-water partitioning of propofol in equilibrated bulk excipient oil/water mixtures; assay type: physicochemical; settings: for Cfree: propofol in aqueous phase, 1 wt % drug
Experimental: Oil-water partition coefficients were calculated by equilibrating a mixture of propofol, water, and oil with mass fractions fdrug, faq, and foil, respectively. The drug loading was kept constant at 1 wt %, while oil loadings were chosen to be 5 or 15 wt %. Additional experiments were performed at 10 wt % excipient oil loading for ethyl butyrate and soybean oil because of the major focus on these oils in this work. The water phase was separated and assayed for propofol concentration (cf), and the partition coefficient was obtained from a mass balance, i.e., Mdrug=Vaqcf+KVoilcf (2) where K is the oil-water partition coefficient, Mdrug, Vaq and Voil are the […] and volumes of water and oil, respectively in the system. The mass balance yields the following equation for K:
[formula] where ρaq and ρoil are the densities of water and oil, respectively. Table 2 lists the molecular weight and densities of various oils considered, along with measured aqueous phase drug concentrations and calculated logarithmic oil-water partition coefficients.

[3] = Creaming / visual shelf stability of emulsions (serum height); assay type: physicochemical; settings: 10 wt % oil; for ability of the oil to yield stable emulsions: 1 wt % drug; for time to begin creaming: emulsions of 1 wt % propofol, 1 wt % Pluronic F68
Experimental: About 10 mL of each emulsion was placed in a 20 mL vial and left undisturbed on a lab bench to explore each emulsion's stability to creaming. Creaming is an instability mechanism where lower density oil droplets rise to the top of the system forming a cream layer with a more clear serum layer below. The emulsions were photographed periodically with a digital camera (Panasonic DMC FH25), and the photographs were analyzed using image processing software (ImageJ) to quantify the degree of creaming. The height of each emulsion phase was measured in number of pixels, and the percentage serum was calculated from the serum height divided by the total emulsion height. The time at which creaming was first observed was used as a measure of each emulsion's stability, and the time at which the emulsion had completely creamed was noted if applicable. A creaming time longer than two years is desired to be considered a commercially viable pharmaceutical emulsion.
Preliminary screening of emulsion stability was conducted by leaving emulsions undisturbed on a shelf and making visual observations at various times. The initial images of the two formulations for each of the five excipient oils are included in the top row of FIG. 3.
Images of the emulsions were digitally measured to determine the serum height as a function of time for all the emulsion systems (FIG. 3). A stable system should not separate into cream and serum phases, so the time at which serum is first observed is considered to be an approximate indicator of the degree of stability.

[4] = Propofol partitioning in binary mixtures of excipient oils
Experimental: Experiments were performed to measure the drug partitioning of binary mixtures of excipient oils. 1 wt % drug loading and 10 wt % total excipient oil loading were maintained as the experimental basis of all the binary systems formed to compare with Diprivan. The relative fractions of excipient oil were varied between 100 wt % ethyl butyrate and 100 wt % soybean oil. […] These experiments were repeated by replacing soybean oil with olive oil.

[5] = oil-water partition coefficient of propofol, 5% excipient oil
[6] = oil-water partition coefficient of propofol, 15% excipient oil

Log10K [2, 5] | Log10K [2, 6] | Cfree ([2]; 5% excipient oil) | Cfree ([2]; 15% excipient oil) | ability of the oil to yield stable emulsions [3] | time to begin creaming [3] | Compound | pKa [1] | log(K) ([2]; oil-water partition coefficient of propofol) | Log10K ([2]; oil-water partition coefficient of propofol, 10% excipient oil) | Cfree ([2]; 10% excipient oil) | partition coefficient of propofol compared to soybean oil [4]
– | – | – | – | – | – | CCCCCCCCCCCCCCCCCC(=O)O [stearic acid] | about 4.9 | – | – | – | –
3.65 | 3.76 | 33.5 mg/L | 10.0 mg/L | did not yield stable emulsions | – | CCCCCCCC(=O)O [Octanoic acid (OA), Octanoic acid] | – | – | – | – | –
3.92 | 4.08 | 16.9 mg/L | 4.39 mg/L | did not yield stable emulsions | several days or weeks | CCCCCCCCCCCCCC(=O)OC(C)C [Isopropyl myristate (IM), Isopropyl myristate] | – | – | – | – | –
3.71 | 4.01 | 28.1 mg/L | 5.17 mg/L | did not yield stable emulsions | several days or weeks | CCCCCCCCCCCCCCCC(=O)OC(C)C [Isopropyl palmitate (IP), Isopropyl palmitate] | – | – | – | – | –

Compound | Log10K [2, 5] | Log10K [2, 6] | Cfree ([2]; 5% excipient oil) | Cfree ([2]; 15% excipient oil) | ability of the oil to yield stable emulsions [3] | time to begin creaming [3] | pKa [1] | log(K) ([2]; oil-water partition coefficient of propofol) | Log10K ([2]; oil-water partition coefficient of propofol, 10% excipient oil) | Cfree ([2]; 10% excipient oil) | partition coefficient of propofol compared to soybean oil [4]
CCCC(=O)OCC [Ethyl butyrate (EB), Ethyl butyrate] | 4.33 | 4.35 | 6.93 mg/L | 2.48 mg/L | did not yield stable emulsions | – | – | 4.3 | 4.32 | 4.60 ± 1.83 mg/L | about 4 fold
